This note sets out measurements from US20220046917A1, “ATTRACTANT BLEND COMPOSITIONS, DEVICES AND METHODS FOR ATTRACTING FEMALE MICE” (priority 2020, published 2022).

The subject of experiment [1] is wild mice. The experiment in a line: Experiment 4: field experiment, captures in paired baited trap boxes. The conditions noted are these: Exp. 4, paired trap boxes. Format: in vivo, Mus musculus. On the procedure:
(§1) Each replicate (n=49) consisted of paired trap boxes as depicted in FIG. 4. The paired trap boxes, PROTECTA® Mouse, Bell Laboratories Inc. Madison, Wis.
(§2) Twice every week, paired trap boxes were checked, and food lures and pheromone lures replaced. Whenever a mouse had been captured, its sex and age (juvenile or adult based on body size and genitalia development) were recorded, and a new trap box and snap trap were deployed. […] The position of the treatment and the control trap within paired trap boxes was re-randomized after each capture.
(§3) Experiments 3 and 4 evaluated the respective abilities of the CPCs and a blend of brevicomin and thiazole to enhance the attractiveness of testosterone. […] Specifically, in Experiment 3, the treatment box in each pair was baited with brevicomin (1 mg) and thiazole (1 mg) formulated in mineral oil (10 ml) and contained in a 20-ml glass scintillation vial. […] To minimize any potential sources of error, treatment and control trap boxes in each experiment were fitted with the same glassware and volume of mineral oil.

Experiment [2] relates to wild mice. Nature of the experiment: Experiment 3: field experiment, captures in paired baited trap boxes. It is filed as in vivo, Mus musculus. Particulars: Exp. 3, paired trap boxes. The protocol: as §1, §2, §3

Consider `C[C@]12CC[C@H]3[C@@H](CCC4=CC(=O)CC[C@@]43C)[C@@H]1CC[C@@H]2O` [testosterone], for which, in the experiment with wild mice [1], the adult females captured entry is listed as “four”, the adult males captured entry is “seven” and the juvenile male captured result is recorded as “one”. For the same compound, the “adult female mice captured” value in the experiment with wild mice [2] was “one”.
